In patent US10131652B2, “Pyrimidinyloxy benzene derivatives as herbicides” (E. I. DU PONT DE NEMOURS AND COMPANY, priority 2014, dated 2018):
Read-outs that look alike come from different tables or passages of the source.

Experiments:
Experiment in all cases: Test D pre-/postemergence plant response
Assay type in all cases: in vivo
[1] = system: galium (catchweed bedstraw, Galium aparine); settings: Galium; for pest or weed control at 62 g/ha: 62 g ai/ha; for pest or weed control at 125 g/ha: 125 g ai/ha
Description: (§1) Seeds of plant species selected from blackgrass (Alopecurus myosuroides), Italian ryegrass (Lolium multiflorum), winter wheat (Triticum aestivum), galium (catchweed bedstraw, Galium aparine), corn (Zea mays), large (Lg) crabgrass (Digitaria sanguinalis), giant foxtail (Setaria faberii), johnsongrass (Sorghum halepense), lambsquarters (Chenopodium album), morningglory (Ipomoea coccinea), yellow nutsedge (Cyperus esculentus), pigweed (Amaranthus retroflexus), ragweed (common ragweed, Ambrosia elatior), soybean (Glycine max), bamyardgrass (Echinochloa crus-galli), oilseed rape (Brassica napus), waterhemp (common waterhemp, Amaranthus rudis), and velvetleaf (Abutilon theophrasti) were planted into a blend of loam soil and sand and treated preemergence with test chemicals formulated in a non-phytotoxic solvent mixture which included a surfactant. At the same time, plants selected from these crop and weed species and also kochia (Kochia scoparia), wild oat (Avena fatua), and chickweed (common chickweed, Stellaria media) were planted in pots containing Redi-Earth® planting medium (Scotts Company, 14111 Scottslawn Road, Marysville, Ohio 43041) comprising spaghnum peat moss, vermiculite, wetting agent and starter nutrients and treated with postemergence applications of test chemicals formulated in the same manner. Plants ranged in height from 2 to 18 cm (1- to 4-leaf stage) for postemergence treatments. Treated plants and controls were maintained in a greenhouse for 13 to 15 days, after which time all species were compared to controls and visually evaluated. Plant response ratings, summarized in Table D, are based on a scale of 0 to 100 where 0 is no effect and 100 is complete control. A dash (-) response means no test result.

[2] = system: giant foxtail (Setaria faberii); settings: Setaria faberi; for pest or weed control at 16 g/ha: 16 g ai/ha; for pest or weed control at 31 g/ha: 31 g ai/ha; for pest or weed control at 62 g/ha: 62 g ai/ha; for pest or weed control at 125 g/ha: 125 g ai/ha
Description: as §1

[3] = system: lambsquarters (Chenopodium album); settings: Chenopodium album; for pest or weed control at 31 g/ha: 31 g ai/ha; for pest or weed control at 62 g/ha: 62 g ai/ha; for pest or weed control at 125 g/ha: 125 g ai/ha
Description: as §1

[4] = system: morningglory (Ipomoea coccinea); settings: Ipomoea; for pest or weed control at 31 g/ha: 31 g ai/ha; for pest or weed control at 62 g/ha: 62 g ai/ha
Description: as §1

[5] = system: pigweed (Amaranthus retroflexus); settings: Amaranthus retroflexus; for pest or weed control at 31 g/ha: 31 g ai/ha; for pest or weed control at 62 g/ha: 62 g ai/ha; for pest or weed control at 125 g/ha: 125 g ai/ha
Description: as §1

[6] = system: ragweed (common ragweed, Ambrosia elatior); settings: Ambrosia artemisiifolia; for pest or weed control at 31 g/ha: 31 g ai/ha; for pest or weed control at 62 g/ha: 62 g ai/ha; for pest or weed control at 125 g/ha: 125 g ai/ha
Description: as §1

[7] = system: waterhemp (common waterhemp, Amaranthus rudis); settings: Amaranthus tuberculatus; for pest or weed control at 31 g/ha: 31 g ai/ha; for pest or weed control at 62 g/ha: 62 g ai/ha; for pest or weed control at 125 g/ha: 125 g ai/ha
Description: as §1

[8] = post-emergence, Postemergence, scale 0 to 100, 0 no effect, 100 complete control, read-out: Plant response rating, Galium
[9] = post-emergence, Postemergence, scale 0 to 100 (0 no effect, 100 complete control), read-out: Foxtail, Giant plant response rating
[10] = post-emergence, Postemergence, scale 0 to 100, 0 no effect, 100 complete control, read-out: Plant response rating, Foxtail, Giant
[11] = pre-emergence, Preemergence, scale 0 to 100 (0 no effect, 100 complete control), read-out: Plant response rating, Foxtail, Giant
[12] = post-emergence, Postemergence, scale 0 to 100, 0 no effect, 100 complete control, read-out: Plant response rating, Lambsquarters
[13] = pre-emergence, Preemergence, scale 0 to 100 (0 no effect, 100 complete control), read-out: Plant response rating, Lambsquarters
[14] = pre-emergence, Preemergence, scale 0 to 100 (0 no effect, 100 complete control), read-out: Plant response rating, Morningglory
[15] = post-emergence, Postemergence, scale 0 to 100, 0 no effect, 100 complete control, read-out: Plant response rating, Pigweed
[16] = pre-emergence, Preemergence, scale 0 to 100 (0 no effect, 100 complete control), read-out: Plant response rating, Pigweed
[17] = post-emergence, Postemergence, scale 0 to 100, 0 no effect, 100 complete control, read-out: Plant response rating, Ragweed
[18] = pre-emergence, Preemergence, scale 0 to 100 (0 no effect, 100 complete control), read-out: Plant response rating, Ragweed
[19] = post-emergence, Postemergence, scale 0 to 100, 0 no effect, 100 complete control, read-out: Plant response rating, Waterhemp
[20] = pre-emergence, Preemergence, scale 0 to 100 (0 no effect, 100 complete control), read-out: Plant response rating, Waterhemp

Fc1cccc(Oc2ncc(Cl)cn2)c1-c1cc(C(F)F)no1 [Compound 144, 5-chloro-2-[2-[3-(difluoromethyl)-5-isoxazolyl]-3-fluorophenoxy]pyrimidine]
pest or weed control at 62 g/ha [1, 8]: 90%
pest or weed control at 125 g/ha [1, 8]: 95%
pest or weed control at 125 g/ha ([1]; pre-emergence, Preemergence, read-out: Plant response rating (scale 0 to 100), Galium): 98%
pest or weed control at 16 g/ha ([1]; pre-emergence, Preemergence, 16 g ai/ha, scale 0 to 100 (0 no effect, 100 complete control), read-out: Plant response rating, Galium): 95%
pest or weed control at 31 g/ha ([1]; pre-emergence, Preemergence, 31 g ai/ha, scale 0 to 100 (0 no effect, 100 complete control), read-out: Plant response rating, Galium): 98%
pest or weed control at 62 g/ha ([1]; pre-emergence, Preemergence, scale 0 to 100 (0 no effect, 100 complete control), read-out: Plant response rating, Galium): 98%
pest or weed control at 16 g/ha [2, 9]: 5%
pest or weed control at 31 g/ha [2, 9]: 10%
pest or weed control at 62 g/ha [2, 10]: 25%
pest or weed control at 125 g/ha [2, 10]: 25%
pest or weed control at 125 g/ha ([2]; pre-emergence, Preemergence, read-out: Plant response rating (scale 0 to 100), Foxtail, Giant): 100%
pest or weed control at 16 g/ha [2, 11]: 100%
pest or weed control at 31 g/ha [2, 11]: 100%
pest or weed control at 62 g/ha [2, 11]: 100%
pest or weed control at 31 g/ha ([3]; post-emergence, Postemergence, scale 0 to 100 (0 no effect, 100 complete control), read-out: Lambsquarters plant response rating): 80%
pest or weed control at 62 g/ha [3, 12]: 90%
pest or weed control at 125 g/ha [3, 12]: 95%
pest or weed control at 125 g/ha ([3]; pre-emergence, Preemergence, read-out: Plant response rating (scale 0 to 100), Lambsquarters): 100%
pest or weed control at 16 g/ha ([3]; pre-emergence, Preemergence, 16 g ai/ha, scale 0 to 100 (0 no effect, 100 complete control), read-out: Plant response rating, Lambsquarters): 100%
pest or weed control at 31 g/ha [3, 13]: 100%
pest or weed control at 62 g/ha [3, 13]: 100%
pest or weed control at 31 g/ha ([4]; post-emergence, Postemergence, scale 0 to 100 (0 no effect, 100 complete control), read-out: Morningglory plant response rating): 85%
pest or weed control at 62 g/ha ([4]; post-emergence, Postemergence, scale 0 to 100, 0 no effect, 100 complete control, read-out: Plant response rating, Morningglory): 85%
pest or weed control at 125 g/ha ([4]; pre-emergence, Preemergence, 125 g ai/ha, read-out: Plant response rating (scale 0 to 100), Morningglory): 100%
pest or weed control at 16 g/ha ([4]; pre-emergence, Preemergence, 16 g ai/ha, scale 0 to 100 (0 no effect, 100 complete control), read-out: Plant response rating, Morningglory): 20%
pest or weed control at 31 g/ha [4, 14]: 75%
pest or weed control at 62 g/ha [4, 14]: 100%
pest or weed control at 31 g/ha ([5]; post-emergence, Postemergence, scale 0 to 100 (0 no effect, 100 complete control), read-out: Pigweed plant response rating): 98%
pest or weed control at 62 g/ha [5, 15]: 100%
pest or weed control at 125 g/ha [5, 15]: 100%
pest or weed control at 125 g/ha ([5]; pre-emergence, Preemergence, read-out: Plant response rating (scale 0 to 100), Pigweed): 100%
pest or weed control at 16 g/ha ([5]; pre-emergence, Preemergence, 16 g ai/ha, scale 0 to 100 (0 no effect, 100 complete control), read-out: Plant response rating, Pigweed): 100%
pest or weed control at 31 g/ha [5, 16]: 100%
pest or weed control at 62 g/ha [5, 16]: 100%
pest or weed control at 31 g/ha ([6]; post-emergence, Postemergence, scale 0 to 100 (0 no effect, 100 complete control), read-out: Ragweed plant response rating): 60%
pest or weed control at 62 g/ha [6, 17]: 70%
pest or weed control at 125 g/ha [6, 17]: 75%
pest or weed control at 125 g/ha ([6]; pre-emergence, Preemergence, read-out: Plant response rating (scale 0 to 100), Ragweed): 100%
pest or weed control at 16 g/ha ([6]; pre-emergence, Preemergence, 16 g ai/ha, scale 0 to 100 (0 no effect, 100 complete control), read-out: Plant response rating, Ragweed): 75%
pest or weed control at 31 g/ha [6, 18]: 85%
pest or weed control at 62 g/ha [6, 18]: 100%
pest or weed control at 31 g/ha ([7]; post-emergence, Postemergence, scale 0 to 100 (0 no effect, 100 complete control), read-out: Waterhemp plant response rating): 85%
pest or weed control at 62 g/ha [7, 19]: 100%
pest or weed control at 125 g/ha [7, 19]: 100%
pest or weed control at 125 g/ha ([7]; pre-emergence, Preemergence, read-out: Plant response rating (scale 0 to 100), Waterhemp): 100%
pest or weed control at 16 g/ha ([7]; pre-emergence, Preemergence, 16 g ai/ha, scale 0 to 100 (0 no effect, 100 complete control), read-out: Plant response rating, Waterhemp): 100%
pest or weed control at 31 g/ha [7, 20]: 100%
pest or weed control at 62 g/ha [7, 20]: 100%
